# Experimental data taken from patent publication US8877754B2, “Compounds, pharmaceutical compositions and uses thereof” (Boehringer Ingelheim International GmbH, priority 2010, dated 2014).
# Molecular target: T1, human ACC2 (Homo sapiens, UniProt O00763)
# T1 construct: made in house; host or cells: insect cells, baculoviral expression system
# Experiment: ACC2 assay, spectrophotometric 384 well assay (NADH-linked, coupled lactate dehydrogenase/pyruvate kinase)
# Format: biochemical
# Settings: hACC2 construct lacking the 128 N-terminal amino acids; 25° C., 340 nm, 15 minutes
# Protocol: Spectrophotometric 384 Well Assay
# Malonyl CoA formation by acetyl CoA carboxylases is stoichometrically linked to the consumption of ATP. ACC2 activity is measured in a NADH-linked kinetic method measuring ADP generated during the ACC reaction using a coupled lactate dehydrogenase/pyruvate kinase reaction.
# For biological testing, a human ACC2 construct which lacks the 128 amino acids at the N-terminus for increased solubility (nt 385-6966 in Genbank entry AJ575592) is cloned. The protein is then expressed in insect cells using a baculoviral expression system. Protein purification is performed by anion exchange.
# All compounds are dissolved in dimethyl sulfoxide (DMSO) to a concentration of 10 mM.
# Assay reactions are then carried out in 384-well plates, with hACC2 in an appropriate dilution and at final assay concentrations (f.c.) of 100 mM Tris (pH 7.5), 10 mM trisodium citrate, 25 mM KHCO3, 10 mM MgCl2, 0.5 mg/mL BSA, 3.75 mM reduced L-glutathione, 15 U/mL lactate dehydrogenase, 0.5 mM phosphoenolpyruvate, 15 U/mL pyruvate kinase, compounds at different concentrations at final DMSO concentrations of 1%.
# The enzymatic reaction is then started by addition of a mixture of NADH, acetyl Coenzyme A (both 200 μM f.c.) and ATP (500 uM f.c.). The decrease of the optical density (slope S) is then determined at 25° C. at a wavelength of 340 nm over 15 minutes in a spectrophotometric reader.
# Each assay microtiter plate contains wells with vehicle instead of compound as controls for the non-inhibited enzyme (100% CTL; ‘HIGH’) and wells without acetyl-CoA as controls for non-specific NADH degradation (0% CTL; ‘LOW’). The slope S is used for calculation of % CTL=(S(compound)−S(‘LOW’))/(S(‘HIGH’)—S(‘LOW’))*100. Compounds will give values between 100% CTL (no inhibition) and 0% CTL (complete inhibition).
# For IC50 value determination, the sample slope in the presence of the test compound after subtraction of the low controls (S(compound)−S(‘LOW’)) are used.
# An IC50 value is derived from the compound slopes at different dosages after subtraction of the low controls (S(compound)−S(‘LOW’)) by non-linear regression curve fitting (equation y=(A+((B−A)/(1+((C/x)^D))))).
# T1 sequence (O00763 129-2458 limits assumed): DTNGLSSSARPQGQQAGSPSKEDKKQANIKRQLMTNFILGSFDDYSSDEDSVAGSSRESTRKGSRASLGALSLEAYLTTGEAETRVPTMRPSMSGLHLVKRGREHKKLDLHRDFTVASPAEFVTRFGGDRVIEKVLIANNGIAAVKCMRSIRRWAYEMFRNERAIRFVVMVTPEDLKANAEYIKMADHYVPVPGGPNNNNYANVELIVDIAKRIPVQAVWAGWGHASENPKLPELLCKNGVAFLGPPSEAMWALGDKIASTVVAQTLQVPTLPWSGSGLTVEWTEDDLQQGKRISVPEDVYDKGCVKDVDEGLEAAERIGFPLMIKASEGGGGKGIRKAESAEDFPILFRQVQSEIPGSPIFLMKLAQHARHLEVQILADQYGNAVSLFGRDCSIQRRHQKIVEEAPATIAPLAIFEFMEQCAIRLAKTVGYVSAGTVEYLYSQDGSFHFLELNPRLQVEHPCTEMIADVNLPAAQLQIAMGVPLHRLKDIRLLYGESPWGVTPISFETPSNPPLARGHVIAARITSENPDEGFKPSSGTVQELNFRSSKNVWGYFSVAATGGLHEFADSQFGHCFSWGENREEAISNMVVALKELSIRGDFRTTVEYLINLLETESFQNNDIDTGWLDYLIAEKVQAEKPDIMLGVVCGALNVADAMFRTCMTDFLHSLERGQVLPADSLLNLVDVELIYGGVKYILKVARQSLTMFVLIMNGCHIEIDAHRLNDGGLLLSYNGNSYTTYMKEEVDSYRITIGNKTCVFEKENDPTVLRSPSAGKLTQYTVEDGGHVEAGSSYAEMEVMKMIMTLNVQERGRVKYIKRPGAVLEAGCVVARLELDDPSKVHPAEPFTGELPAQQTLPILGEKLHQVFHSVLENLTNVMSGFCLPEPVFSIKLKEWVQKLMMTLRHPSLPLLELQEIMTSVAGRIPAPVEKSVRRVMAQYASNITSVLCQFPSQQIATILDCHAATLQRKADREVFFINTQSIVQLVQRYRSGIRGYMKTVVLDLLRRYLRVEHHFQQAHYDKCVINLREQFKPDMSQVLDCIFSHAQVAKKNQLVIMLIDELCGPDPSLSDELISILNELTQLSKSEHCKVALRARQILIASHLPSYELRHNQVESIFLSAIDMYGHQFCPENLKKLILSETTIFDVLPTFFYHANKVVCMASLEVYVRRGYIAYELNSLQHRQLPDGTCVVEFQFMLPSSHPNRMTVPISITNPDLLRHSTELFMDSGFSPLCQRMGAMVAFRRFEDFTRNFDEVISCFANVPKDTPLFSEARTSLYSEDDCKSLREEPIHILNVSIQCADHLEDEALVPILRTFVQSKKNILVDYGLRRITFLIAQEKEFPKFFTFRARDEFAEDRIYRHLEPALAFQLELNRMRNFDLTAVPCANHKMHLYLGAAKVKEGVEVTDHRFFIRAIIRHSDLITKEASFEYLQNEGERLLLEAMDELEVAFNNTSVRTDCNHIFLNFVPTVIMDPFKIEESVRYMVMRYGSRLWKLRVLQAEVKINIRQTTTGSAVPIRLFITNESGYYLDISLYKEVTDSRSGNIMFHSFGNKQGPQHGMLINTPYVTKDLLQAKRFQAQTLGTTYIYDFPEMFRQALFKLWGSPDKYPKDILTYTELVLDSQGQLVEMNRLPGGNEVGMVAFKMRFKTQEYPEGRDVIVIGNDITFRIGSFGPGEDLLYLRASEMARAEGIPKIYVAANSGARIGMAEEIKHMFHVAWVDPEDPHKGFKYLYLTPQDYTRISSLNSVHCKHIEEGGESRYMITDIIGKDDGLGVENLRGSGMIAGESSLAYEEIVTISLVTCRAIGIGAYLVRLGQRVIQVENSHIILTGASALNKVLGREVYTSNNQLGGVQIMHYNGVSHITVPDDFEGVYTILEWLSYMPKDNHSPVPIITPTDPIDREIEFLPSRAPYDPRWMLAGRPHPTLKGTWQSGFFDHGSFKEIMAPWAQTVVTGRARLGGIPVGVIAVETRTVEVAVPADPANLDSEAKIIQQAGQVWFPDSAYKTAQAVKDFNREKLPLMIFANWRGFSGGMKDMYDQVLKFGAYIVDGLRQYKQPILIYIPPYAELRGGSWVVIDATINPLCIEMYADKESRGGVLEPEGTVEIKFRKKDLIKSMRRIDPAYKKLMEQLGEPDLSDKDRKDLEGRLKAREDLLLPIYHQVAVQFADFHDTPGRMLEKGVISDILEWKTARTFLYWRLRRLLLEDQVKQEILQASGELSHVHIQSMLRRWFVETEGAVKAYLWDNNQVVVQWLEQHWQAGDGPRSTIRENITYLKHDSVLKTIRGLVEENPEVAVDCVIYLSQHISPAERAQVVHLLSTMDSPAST
row,Structure (SMILES),IC50
1,CCCOc1ccc(C#Cc2ccc(C(C)C(=O)NCC)cc2)c(C)c1 (stereo not drawn) [Example 7.42],90 nM
2,CCCCOc1cc(C#Cc2ccc(C(C)C(=O)NCC)cc2)ccn1 (stereo not drawn) [Example 7.43],170 nM
3,CCNC(=O)C(C)c1ccc(C#Cc2cnc(Oc3ccccc3)nc2)cc1 (stereo not drawn) [Example 3.3],920 nM
4,CCNC(=O)C(C)c1ccc(C#Cc2ccc3c(c2)OCC3)cc1 (stereo not drawn) [Example 7.20],500 nM
5,CCNC(=O)C(C)c1ccc(C#Cc2cnn(-c3ccccc3)c2)cc1 (stereo not drawn) [Example 7.32],440 nM
6,CCNC(=O)C(C)c1ccc(C#Cc2cccc(OCc3ccccc3)c2)cc1 (stereo not drawn) [Example 7.11],380 nM
7,"CCNC(=O)C(C)c1ccc(C#Cc2cnc(OCCF)nc2)cc1 (stereo not drawn) [Example 3.1, N-Ethyl-2-{4-[2-(2-fluoro-ethoxy)-pyrimidin-5-ylethynyl]-phenyl}-propionamide]",8400 nM
8,CCNC(=O)C(C)c1ccc(C#Cc2ccnc(OC(C)C)c2)cc1 (stereo not drawn) [Example 7.44],250 nM
9,CCNC(=O)C(C)c1ccc(C#Cc2cnc(OC(C)C)nc2)cc1 (stereo not drawn) [Example 3.4],460 nM
10,CCNC(=O)C(C)c1ccc(C#Cc2ccn(CC(C)C)c(=O)c2)cc1 (stereo not drawn) [Example 7.34],1100 nM
11,CCNC(=O)C(C)c1ccc(C#Cc2ccnc(OCC)c2)cc1 (stereo not drawn) [Example 7.9],250 nM
12,CCNC(=O)C(C)c1ccc(C#Cc2cc(OCC)ncn2)cc1 (stereo not drawn) [Example 7.13],2000 nM
13,CCNC(=O)C(C)c1ccc(C#Cc2ccc(OC(C)C)nn2)cc1 (stereo not drawn) [Example 7.36],3800 nM
14,CCNC(=O)C(C)c1ccc(C#Cc2ccnc(Oc3ccccc3)c2)cc1 (stereo not drawn) [Example 7.45],390 nM
15,CCNC(=O)C(C)c1ccc(C#Cc2cnc(OC)nc2OC)cc1 (stereo not drawn) [Example 7.5],4400 nM
16,CCNC(=O)C(C)c1ccc(C#Cc2cnc(N3CCC3)nc2)cc1 (stereo not drawn) [Example 2.7],3700 nM

# Now from value to molecule:
row,IC50,Structure (SMILES)
1,4500 nM,CCOc1ccc(C#Cc2ccc(C(C)C(=O)NCc3ncn[nH]3)cc2)cc1 (stereo not drawn) [Example 6.19]
2,230 nM,CCNC(=O)C(C)c1ccc(C#Cc2ccc(OCC3CCOC3)cc2)cc1 (stereo not drawn) [Example 5.6]
3,870 nM,CCNC(=O)C(C)c1ccc(C#Cc2ccc(OC3CCCOC3)cc2)cc1 (stereo not drawn) [Example 5.11]
4,18700 nM,CCOc1ccc(C#Cc2ccc(C(C)C(=O)NC(C)(C)C#N)cc2)cc1 (stereo not drawn) [Example 6.26]
5,110 nM,CCNC(=O)C(C)c1ccc(C#Cc2ccc(OC3CCC3)cc2)cc1 (stereo not drawn) [Example 7.3]
6,250 nM,CCNC(=O)C(C)c1ccc(C#Cc2ccc(SC)cc2)cc1 (stereo not drawn) [Example 7.7]
7,25500 nM,CCOc1ccc(C#Cc2ccc(C(C)C(=O)Nc3cc(C)[nH]n3)cc2)cc1 (stereo not drawn) [Example 6.21]
8,25500 nM,CCNC(=O)C(C)c1ccc(C#Cc2ccc(CNC(C)=O)cc2)cc1 (stereo not drawn) [Example 7.26]
9,1300 nM,CCOc1ccc(C#Cc2ccc(C(C)C(=O)NCC(=O)OC)cc2)cc1 (stereo not drawn) [Example 1.18]
10,5400 nM,CCNC(=O)C(C)c1ccc(C#Cc2ccc(C3CC3)cn2)cc1 (stereo not drawn) [Example 7.33]
11,220 nM,CCOc1ccc(C#Cc2ccc(C(C)C(=O)NC)cc2)cc1 (stereo not drawn) [Example 1.3]
12,16100 nM,CCOc1ccc(C#Cc2ccc(C(C)C(=O)N(C)C)cc2)cc1 (stereo not drawn) [Example 1.4]
13,2700 nM,CCOc1ccc(C#Cc2ccc(CC(C)C(=O)NC)cc2)cc1 (stereo not drawn) [Example 1.24]
14,100 nM,CCOc1ccc(C#Cc2ccc(C(C)C(=O)Nc3cc(C)on3)cc2)cc1 (stereo not drawn) [Example 6.16]
15,840 nM,CCOc1ccc(C#Cc2ccc(C(C)C(=O)Nc3ccnn3CC)cc2)cc1 (stereo not drawn) [Example 6.11]
16,80 nM,CCOc1ccc(C#Cc2ccc(C(C)C(=O)Nc3ccccc3)cc2)cc1 (stereo not drawn) [Example 1.15]
17,120 nM,CCOc1ccc(C#Cc2ccc(C(C)C(=O)NC3CC3)cc2)cc1 (stereo not drawn) [Example 1.17]
18,4000 nM,CCNC(=O)C(C)c1ccc(C#Cc2ccc(N3CCCCC3=O)cc2)cc1 (stereo not drawn) [Example 7.15]
19,4300 nM,CCNC(=O)C(C)c1ccc(C#Cc2ccc(OC(F)F)cc2)cc1 (stereo not drawn) [Example 7.6]
20,2900 nM,CCNC(=O)C(C)c1ccc(C#Cc2ccc(OC)nc2)cc1 (stereo not drawn) [Example 7.28]
